Experimental data from patent US9309254B2, “Pyrimidinyl-diazospiro compounds” (CONVERGENCE PHARMACEUTICALS LIMITED, priority 2012, dated 2016).
Structures can show the parent of a compound that is named as a salt. Where two headings read alike, the source gives them in different places.

Target: T1, hNaV1.7 (Homo sapiens, UniProt Q15858)
T1 construct: expressed in transfected cells; host or cells: HEK293
Assay: QPatch NaV1.7 assay
Assay type: cell-based
Conditions: HEK293-hNaV1.7 cells, QPatch16x
Method: The compounds of the invention were tested in a QPatch NaV1.7 assay.
HEK293-hNaV1.7 cells were grown in DMEM-F12+10% FBS culture media at 37° C. At a confluency of 50-70% cells were dissociated from culture flasks & triturated to ensure unicellular cell suspension; cell density was measured & adjusted to 2-3×10^6 cells/ml. Recordings were obtained using QPatch16x. The external solution was (in mM): NaCl, 128; KCl, 5; MgCl2, 2; CaCl2, 2; Glucose, 30; HEPES, 15; pH 7.3, 305-315 mOsm. Following seal formation and whole-cell access using internal solution (containing in mM: CsF, 135; EGTA/CsOH, 1/5; HEPES 10; NaCl, 10; pH 7.3, 310-320mOsM), voltage pulse protocols were applied. Initially a steady state inactivation voltage protocol was used to determine the half-maximal voltage for steady state inactivation (V1/2 SSI). Two holding voltages were used to determine test drug inhibition: −90 mV, where most of the channels are in a closed state; and V1/2 SSI, where half of the channels are inactivated. Currents were elicited every 10 seconds by stepping to a membrane potential of 0 mV for 20 ms. Four-point cumulative concentration responses were derived by determining the peak current amplitude at each concentration of test drug over 120 second application. Curves were fitted with the Hill equation yielding pIC50 values at −90 mV and V1/2 SSI holding potentials.

[1] = holding voltage V1/2 SSI, where half of the channels are inactivated, read-out: QP Nav1.7 SSI vhalf pIC50 (converted)
[2] = holding voltage −90 mV, where most of the channels are in a closed state, read-out: QP Nav1.7 - 90 mV pIC50 (converted)

T1 sequence (Q15858 whole entry): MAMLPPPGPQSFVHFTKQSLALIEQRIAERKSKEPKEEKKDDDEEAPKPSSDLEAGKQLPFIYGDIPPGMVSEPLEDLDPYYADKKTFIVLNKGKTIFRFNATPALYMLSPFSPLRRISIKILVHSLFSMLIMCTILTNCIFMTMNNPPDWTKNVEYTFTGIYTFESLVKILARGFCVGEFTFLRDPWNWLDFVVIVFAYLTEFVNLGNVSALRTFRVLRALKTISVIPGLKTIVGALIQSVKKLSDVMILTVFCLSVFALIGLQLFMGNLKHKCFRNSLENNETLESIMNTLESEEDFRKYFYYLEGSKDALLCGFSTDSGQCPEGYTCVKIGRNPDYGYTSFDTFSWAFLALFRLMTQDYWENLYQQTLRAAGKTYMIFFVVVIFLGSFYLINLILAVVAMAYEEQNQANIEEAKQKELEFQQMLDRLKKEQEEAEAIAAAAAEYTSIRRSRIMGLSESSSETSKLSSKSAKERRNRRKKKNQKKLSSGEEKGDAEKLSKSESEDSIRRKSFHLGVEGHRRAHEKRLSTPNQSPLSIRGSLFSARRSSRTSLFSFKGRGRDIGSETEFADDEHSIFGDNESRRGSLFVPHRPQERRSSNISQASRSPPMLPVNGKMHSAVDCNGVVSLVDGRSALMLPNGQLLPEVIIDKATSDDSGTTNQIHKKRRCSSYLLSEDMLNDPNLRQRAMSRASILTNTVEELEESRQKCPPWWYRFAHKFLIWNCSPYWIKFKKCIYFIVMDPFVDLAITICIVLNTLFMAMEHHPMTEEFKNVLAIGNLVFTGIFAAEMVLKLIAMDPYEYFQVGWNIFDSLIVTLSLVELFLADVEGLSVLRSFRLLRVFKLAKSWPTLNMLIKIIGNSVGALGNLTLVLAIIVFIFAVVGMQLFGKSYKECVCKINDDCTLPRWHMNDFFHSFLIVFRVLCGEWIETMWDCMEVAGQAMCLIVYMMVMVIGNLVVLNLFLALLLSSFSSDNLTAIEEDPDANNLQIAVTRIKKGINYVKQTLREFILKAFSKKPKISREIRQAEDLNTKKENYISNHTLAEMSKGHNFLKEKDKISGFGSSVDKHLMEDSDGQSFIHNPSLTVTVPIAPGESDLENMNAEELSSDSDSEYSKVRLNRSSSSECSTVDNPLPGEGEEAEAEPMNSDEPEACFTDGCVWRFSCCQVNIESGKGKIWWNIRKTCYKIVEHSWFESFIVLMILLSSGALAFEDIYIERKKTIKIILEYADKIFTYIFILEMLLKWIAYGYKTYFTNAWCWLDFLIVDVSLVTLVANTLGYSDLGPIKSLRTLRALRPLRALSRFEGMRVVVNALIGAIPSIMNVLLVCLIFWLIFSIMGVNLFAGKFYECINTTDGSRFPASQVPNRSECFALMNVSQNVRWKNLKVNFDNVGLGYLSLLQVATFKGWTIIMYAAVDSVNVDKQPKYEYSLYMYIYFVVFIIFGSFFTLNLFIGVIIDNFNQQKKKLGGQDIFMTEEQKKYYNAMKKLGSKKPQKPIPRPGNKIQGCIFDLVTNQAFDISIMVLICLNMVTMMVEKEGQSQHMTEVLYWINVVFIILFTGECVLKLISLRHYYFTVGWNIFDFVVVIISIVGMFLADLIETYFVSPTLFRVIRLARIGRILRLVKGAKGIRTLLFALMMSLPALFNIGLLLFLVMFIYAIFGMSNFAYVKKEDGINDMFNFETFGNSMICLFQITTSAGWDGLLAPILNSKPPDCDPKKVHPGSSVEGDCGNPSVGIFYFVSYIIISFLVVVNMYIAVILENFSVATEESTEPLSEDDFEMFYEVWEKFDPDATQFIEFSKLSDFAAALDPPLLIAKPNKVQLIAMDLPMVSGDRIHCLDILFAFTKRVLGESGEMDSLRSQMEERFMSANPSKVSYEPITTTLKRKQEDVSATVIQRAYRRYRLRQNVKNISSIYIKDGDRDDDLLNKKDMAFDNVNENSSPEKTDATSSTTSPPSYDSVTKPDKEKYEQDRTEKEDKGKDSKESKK

IC50 [1] [µM]	IC50 [2] [µM]	SMILES
1.58	20	CCOc1ccc(F)c(-c2cc(C)nc([C@H]3CC[C@@]4(CCN(C)C4=O)N3)n2)c1 [Example 10, (2R,5S)-2-[4-(5-Ethoxy-2-fluoro-phenyl)-6-methyl-pyrimidin-2-yl]-7-methyl-1,7-diazaspiro[4.4]nonan-6-one hydrochloride]
1.26	20	CCOc1ccc(F)c(-c2ccnc([C@H]3CC[C@]4(CCN(C)C4=O)N3)n2)c1 [Example 14, (2R,5R)-2-[4-(5-Ethoxy-2-fluoro-phenyl)pyrimidin-2-yl]-7-methyl-1,7-diazaspiro[4.4]nonan-6-one hydrochloride]
12.6	126	CN1CC[C@@]2(CC[C@H](c3nccc(-c4cccc(OC(F)(F)F)c4)n3)N2)C1=O [Example 18, (2R,5S)-7-Methyl-2-[4-[3-(trifluoromethoxy)phenyl]pyrimidin-2-yl]-1,7-diazaspiro[4.4]nonan-6-one hydrochloride]
15.8	200	CN1CC[C@]2(CC[C@H](c3nccc(-c4cccc(OC(F)(F)F)c4)n3)N2)C1=O [Example 21, (2R,5R)-7-Methyl-2-[4-[3-(trifluoromethoxy)phenyl]pyrimidin-2-yl]-1,7-diazaspiro[4.4]nonan-6-one hydrochloride]
2.51	25.1	Cc1cc(-c2ccc(C(F)(F)F)cc2)nc([C@@H]2CC[C@@]3(CCNC3=O)N2)n1 [Example 41, (2S,5S)-2-[4-Methyl-6-[4(trifluoromethyl)-phenyl]-pyrimidin-2-yl]-1,7-diazaspiro[4.4]nonan-6-one hydrochloride]
20	200	CN1CC[C@@]2(CC[C@@H](c3nccc(-c4cccc(OC(F)(F)F)c4)n3)N2)C1=O [Example 19, (2S,5S)-7-Methyl-2-[4-[3-(trifluoromethoxy)phenyl]pyrimidin-2-yl]-1,7-diazaspiro[4.4]nonan-6-one hydrochloride]
63.1	398	CN1CC[C@@]2(CC[C@@H](c3nccc(-c4ccc(C(F)(F)F)cc4)n3)N2)C1=O [Example 2, (2S,5S)-7-Methyl-2-[4-[4-(trifluoromethyl)phenyl]pyrimidin-2-yl]-1,7-diazaspiro[4.4]nonan-6-one hydrochloride]
50.1	631	Cc1cc(-c2ccc(OC(F)(F)F)cc2)nc([C@@H]2CC[C@@]3(CCN(C)C3=O)N2)n1 [Example 28, (2S,5S)-7-Methyl-2-[4-methyl-6-[4-(trifluoromethoxy)phenyl]pyrimidin-2-yl]-1,7-diazaspiro[4.4]nonan-6-one hydrochloride]
